Source: article PMC8457121, “From Kinase Inhibitors to Multitarget Ligands as Powerful Drug Leads for Alzheimer's Disease using Protein‐Templated Synthesis” (Angewandte Chemie (International Ed. in English), 2021)

Columns and labels:
LRRK2 = target: T1, LRRK2 (Homo sapiens, UniProt Q5S007); experiment: LRRK2 inhibition enzymatic assay (Adapta, ThermoFisher); type: biochemical
T1 construct: purchased ThermoFisher (assay run by the company)

BACE1 [1] = target: T2, BACE1 (Homo sapiens, UniProt P56817); experiment: BACE1 enzymatic assay (FRET); type: biochemical
Procedure: BACE1 enzymatic assay. BACE1 in vitro assays were carried out using FRET.
μM) carrying the Swedish mutation and containing a rhodamine as a fluorescence donor and a quencher acceptor at each end was used. The intact substrate is weakly fluorescent and becomes highly fluorescent upon enzymatic cleavage.
The assays were conducted in 50 mM sodium acetate buffer, pH 4.5, in a final

BACE1 [2] = target: T2, BACE1; experiment: Evaluation of BACE inhibitors kinetics (Lineweaver-Burk); type: biochemical; settings: different concentrations of substrate and compound
Procedure: enzyme concentration (1 U/mL). Inhibitor screening at 10 μM. The mixture was incubated for 60 min at 25 °C under dark conditions and then stopped with 2.5 M sodium acetate. Fluorescence was measured with a FLUOstar Optima (BMG
Labtechnologies GmbH, Offenburg, Germany) microplate reader at 545 nm excitation and 585 nm emission.
Evaluation of BACE Inhibitors Kinetics. To evaluate the mechanism of BACE1 inhibition of the compounds, substrate-dependent kinetic experiments were performed. BACE activity were measured at five different concentrations substrate (1000 -62,5 µM) in the absence or presence of the select inhibitor at two different concentrations. The results are presented as double reciprocal Lineweaver−Burk plots (1/V vs 1/[S]) Figure S1.
Cell culture and treatments. SK-N-MC cells stably expressing the human isoform APP695 (SK-APP cell line D1; SKAPP-D1) were generated by transfection of SK-N-MC cells with a pCDNA3-APP expression vector, and kindly provided by Dr. MJ Bullido. These cells were cultured in DMEM (Thermo Fisher) medium supplemented with 10% FBS (Thermo Fisher), 1 mM glutamine (Sigma-Aldrich), and 100 unit/ml penicillin (Lonza) and […] streptomycin (Lonza).
Cell cultures were maintained in a 5% CO2, humidified atmosphere at 37 °C. […]

SK-APP cells = experiment: Aβ40 and Aβ42 levels in SK-APP cells (sandwich ELISA); type: cell-based, human; settings: 10 μM, 48 h treatment
Procedure: page 35: enzyme concentration (1 U/mL). Inhibitor screening at 10 μM. The mixture was incubated for 60 min at 25 °C under dark conditions and then stopped with 2.5 M sodium acetate. Fluorescence was measured with a FLUOstar Optima (BMG Labtechnologies GmbH, Offenburg, Germany) microplate reader at 545 nm excitation and 585 nm emission. Evaluation of BACE Inhibitors Kinetics. To evaluate the mechanism of BACE1 inhibition of the compounds, substrate-dependent kinetic experiments were performed. BACE activity were measured at five different concentrations substrate (1000 -62,5 μM) in the absence or presence of the select inhibitor at two different concentrations. The results are presented as double reciprocal Lineweaver-Burk plots (1/V vs 1/[S]) Figure S1. Cell culture and treatments. SK-N-MC cells stably expressing the human isoform APP695 (SK-APP cell line […]1) were generated by transfection of SK-N-MC cells with a pCDNA3-APP expression vector, and kindly provided by Dr. MJ Bullido. These cells were cultured in DMEM (Thermo Fisher) medium supplemented with 10% FBS (Thermo Fisher), 1 mM glutamine (Sigma- Aldrich), and 100 unit/ml penicillin (Lonza) and […] streptomycin (Lonza). Cell cultures were maintained in a 5% CO2, humidified atmosphere at 37 °C. SH-SY5Y cells were obtained from the American Type Culture Collection and grown in DMEM media (Gibco), supplemented with 10% foetal bovine serum, and 1% penicillin/streptomycin (Invitrogen). The cells were grown at 37 °C in a humidified 5% CO2 atmosphere. For the treatments, all the compounds were dissolved in dimethyl sulfoxide (DMSO, from Sigma) at an initial stock concentration of 10 mM. […] working solutions were obtained from the dilution of the stock solutions in DMEM media (DMSO control solutions were prepared similarly to the compounds). Okadaic acid (OA, Sigma-Aldrich) was dissolved in DMSO at an initial stock concentration of 60 μM and a 250X working solution was obtained from the dilution of the stock solution in DMEM. All the compounds (250x solutions) were added directly into the wells at the indicated final concentrations for 1 hour before the treatment with OA at a final concentration of 30 nM. DMSO was added at the appropriate concentration to the 34 page 36: control-untreated cells. The cells were maintained in the presence of the OA and the different compounds for 24h. Measurement of cell viability. Cell viability assays were carried out using a 3- […] (Sigma-Aldrich) in 96-well cell culture plates. All cells were then incubated with a 0.5 mg/ml MTT solution (Sigma-Aldrich) at 37 °C for 4 h and then with cell lysis […] The absorbance values were determined at 590 nm. Cell viability was expressed as a percent of OD of control cells, the value of which was defined as 100%. Cell viability in SH-SY5Y were carried out following the same procedure but seeding the cells in 24 well multiplates. Absorbance was measured using a Varioskan Flash multiplate reader (Thermo Scientific) at test 550 nm and reference 664 nm wave-lengths. Compound concentration for SK-APP line was 10 μM and for the SH-SY5Y was 1 and 5 μM. Immunoassays. Levels of Aβ40 and Aβ42 were quantified by sandwich ELISAs (Wako, Osaka, Japan) from cellular lysates and conditioned media collected. CNS penetration: in vitro PAMPA-BBB test. Prediction of the brain penetration was evaluated using a parallel artificial membrane permeability assay (PAMPA).1 Nine quality control compounds (mentioned below) of know BBB permeability were included in each experiment to validate the analysis set.2 Commercial drugs […] dissolved in 250 μL of DMSO (Sigma-Aldrich). 25 μL of these compound stock solutions were taken and 225 μL of DMSO and 4750 μL of PBS pH 7.4 buffer were added to reach 5% of DMSO concentration in the experiment and a final […] Compounds to be determined their ability to pass the brain barrier (0.5-1 mg) were dissolved in 250 μL of DMSO and 4750 μL of PBS pH 7.4 was carefully added to afford a final […]

PAMPA-BBB test = type: in vitro ADME; settings: PBS pH 7.4 with 5% DMSO
Procedure: dissolved in 250 µL of DMSO (Sigma-Aldrich). 25 µL of these compound stock
solutions were taken and 225 µL of DMSO and 4750 µL of PBS pH 7.4 buffer
compound concentration in the range of 0.2 to 1.1 mM. Compounds to be
µL of DMSO and 4750 µL of PBS pH 7.4 was carefully added to afford a final
compound concentration in the range of 0.2 to 1.1 mM. Solutions were filtered
using filter PDVF membrane units (diameter 30 mm, pore size 0.45 μm, Symta).
10 µL of each solution were taken and diluted 10-fold with PBS/DMSO (95/5) for
HPLC-MS analysis. The acceptor 96-well plate (Multiscreen®, catalog no.
MAMCS9610, Millipore) was filled with 180 µL of PBS/DMSO (95/5). The donor
96-well plate (Multiscreen® IP Sterile Plate PDVF membrane, pore size is 0.45
M, catalog no. MAIPS4510, Millipore) was coated with 4 µL 20 mg·mL-1 of
for 5 min and then 180 µL of each compound solution was added. Then the donor
plate was put on the acceptor plate and kept for 2.5 h at room temperature. After
incubation, samples were collected from the acceptor plate and diluted 10-fold
with PBS/DMSO (95/5) for HPLC-MS analysis and compared to HPLC-MS of
initial solutions. Absorbance peak of each compound was determined by MS
detection and was used to calculate the concentration of compounds and
Every sample was analysed in two independent
runs. HPLC-MS was performed using a HPLC-MS equipment from Thermo
Fisher coupled to a Finnigan TM LXQ TM detector. Each compound was
analysed using a Sunfire column C18, 3.5 μm (50 mm x 4.6 mm) and acetonitrile
and Milli-Q water (with 0.1% formic acid) as mobile phase. The standard gradient

T2 sequence (P56817 46-501): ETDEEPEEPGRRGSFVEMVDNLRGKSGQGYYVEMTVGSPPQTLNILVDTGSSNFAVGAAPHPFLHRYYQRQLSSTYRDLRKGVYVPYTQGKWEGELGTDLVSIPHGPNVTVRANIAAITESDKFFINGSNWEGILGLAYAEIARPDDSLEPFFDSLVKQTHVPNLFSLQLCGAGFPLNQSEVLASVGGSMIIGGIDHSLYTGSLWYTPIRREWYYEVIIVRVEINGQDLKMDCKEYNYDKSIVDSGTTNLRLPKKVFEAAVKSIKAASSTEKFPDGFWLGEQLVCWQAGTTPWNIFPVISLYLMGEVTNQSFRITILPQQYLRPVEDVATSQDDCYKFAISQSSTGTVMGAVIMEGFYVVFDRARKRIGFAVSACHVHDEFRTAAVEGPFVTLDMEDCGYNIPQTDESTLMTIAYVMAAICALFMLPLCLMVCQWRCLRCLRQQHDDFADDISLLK
T1 sequence (Q5S007 whole entry): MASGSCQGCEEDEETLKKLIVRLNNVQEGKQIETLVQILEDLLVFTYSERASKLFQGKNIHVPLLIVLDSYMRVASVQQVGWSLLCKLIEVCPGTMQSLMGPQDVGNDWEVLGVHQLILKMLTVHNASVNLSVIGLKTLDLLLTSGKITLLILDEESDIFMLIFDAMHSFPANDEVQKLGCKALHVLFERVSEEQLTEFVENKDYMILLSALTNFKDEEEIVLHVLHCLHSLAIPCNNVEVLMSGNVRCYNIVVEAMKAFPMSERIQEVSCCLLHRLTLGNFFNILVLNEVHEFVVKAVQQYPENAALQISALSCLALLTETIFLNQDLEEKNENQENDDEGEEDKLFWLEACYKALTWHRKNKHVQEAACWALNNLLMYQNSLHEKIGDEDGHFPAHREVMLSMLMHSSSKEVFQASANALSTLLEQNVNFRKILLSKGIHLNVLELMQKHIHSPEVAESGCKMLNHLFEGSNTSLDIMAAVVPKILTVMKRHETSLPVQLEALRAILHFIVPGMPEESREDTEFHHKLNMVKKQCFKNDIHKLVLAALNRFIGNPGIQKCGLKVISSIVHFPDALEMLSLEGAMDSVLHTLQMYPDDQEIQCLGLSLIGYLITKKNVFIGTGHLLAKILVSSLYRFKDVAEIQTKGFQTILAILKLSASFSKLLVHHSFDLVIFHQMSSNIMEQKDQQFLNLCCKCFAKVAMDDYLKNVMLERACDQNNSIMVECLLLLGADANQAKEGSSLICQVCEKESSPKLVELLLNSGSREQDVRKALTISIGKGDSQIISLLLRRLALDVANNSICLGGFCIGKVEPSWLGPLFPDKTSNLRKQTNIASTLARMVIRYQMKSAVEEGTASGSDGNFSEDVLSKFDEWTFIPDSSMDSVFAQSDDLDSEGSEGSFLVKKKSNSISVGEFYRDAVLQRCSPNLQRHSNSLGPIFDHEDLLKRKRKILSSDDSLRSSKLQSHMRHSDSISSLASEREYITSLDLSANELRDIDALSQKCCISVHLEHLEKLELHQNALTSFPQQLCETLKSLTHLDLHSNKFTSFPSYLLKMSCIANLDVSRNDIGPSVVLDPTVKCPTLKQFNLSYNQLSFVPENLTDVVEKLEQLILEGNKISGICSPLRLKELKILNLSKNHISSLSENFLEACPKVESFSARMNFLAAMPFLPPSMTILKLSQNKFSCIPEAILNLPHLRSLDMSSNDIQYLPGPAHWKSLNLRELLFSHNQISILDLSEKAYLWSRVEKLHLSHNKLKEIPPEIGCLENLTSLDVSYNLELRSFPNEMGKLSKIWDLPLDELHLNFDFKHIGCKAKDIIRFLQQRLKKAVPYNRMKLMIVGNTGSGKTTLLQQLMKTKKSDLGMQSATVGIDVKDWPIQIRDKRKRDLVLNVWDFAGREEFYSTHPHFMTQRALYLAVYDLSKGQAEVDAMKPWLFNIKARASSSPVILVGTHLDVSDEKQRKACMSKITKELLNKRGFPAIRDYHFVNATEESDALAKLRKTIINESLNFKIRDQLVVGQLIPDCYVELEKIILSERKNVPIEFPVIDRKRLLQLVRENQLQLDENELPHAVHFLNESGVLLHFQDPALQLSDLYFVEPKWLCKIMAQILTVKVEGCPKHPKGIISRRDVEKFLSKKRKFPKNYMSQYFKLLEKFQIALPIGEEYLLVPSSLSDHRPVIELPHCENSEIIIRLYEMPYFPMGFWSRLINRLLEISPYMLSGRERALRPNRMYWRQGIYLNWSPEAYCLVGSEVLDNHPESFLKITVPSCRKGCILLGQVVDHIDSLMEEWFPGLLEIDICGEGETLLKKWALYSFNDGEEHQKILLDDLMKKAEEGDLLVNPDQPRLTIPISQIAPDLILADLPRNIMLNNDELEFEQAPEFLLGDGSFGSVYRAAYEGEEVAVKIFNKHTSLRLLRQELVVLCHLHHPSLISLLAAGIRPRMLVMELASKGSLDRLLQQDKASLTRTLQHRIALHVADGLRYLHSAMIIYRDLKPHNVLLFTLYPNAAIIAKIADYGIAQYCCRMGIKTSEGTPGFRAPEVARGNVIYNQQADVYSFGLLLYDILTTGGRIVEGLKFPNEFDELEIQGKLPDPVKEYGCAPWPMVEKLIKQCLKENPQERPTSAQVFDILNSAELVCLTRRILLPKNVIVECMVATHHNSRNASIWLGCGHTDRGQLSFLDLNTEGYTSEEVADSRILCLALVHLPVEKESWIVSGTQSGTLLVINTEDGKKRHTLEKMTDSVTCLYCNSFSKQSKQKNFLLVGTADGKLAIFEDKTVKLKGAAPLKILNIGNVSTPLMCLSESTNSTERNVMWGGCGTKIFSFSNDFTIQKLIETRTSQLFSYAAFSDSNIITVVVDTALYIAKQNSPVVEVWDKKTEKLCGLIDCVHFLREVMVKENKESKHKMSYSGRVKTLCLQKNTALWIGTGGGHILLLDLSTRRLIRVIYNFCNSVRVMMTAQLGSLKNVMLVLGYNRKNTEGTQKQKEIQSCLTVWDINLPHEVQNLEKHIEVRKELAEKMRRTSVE

O=C(Nc1nc2ccccc2s1)c1ccc(Cn2cc(COc3ccc(C(=O)Nc4nc5ccccc5s4)cc3)nn2)cc1 [compound 8]
IC50 (LRRK2): 1830 nM
IC50 (BACE1 [1]): 3.72 µM
Behavior in the inhibition of BACE1 (Lineweaver–Burk double reciprocal plot) (BACE1 [2]): substrate‐competitive
Aβ40 levels in cellular lysates (SK-APP cells): reducing
Aβ40 levels in extracellular fluid (SK-APP cells): reducing
Aβ42 levels in extracellular fluid (SK-APP cells): reducing
Solubility in the conditions of the PAMPA experiment (PAMPA-BBB test): insoluble
melting point: 280 to 282 °C (dec.)
